Test results published in patent US10280159B2 (AbbVie Deutschland GmbH & Co. KG, priority 2015, dated 2019).
Structures can show the parent of a compound that is named as a salt. Where two headings read alike, the source gives them in different places.

Experiments:
Assay type in all cases: cell-based
human S1PR3 = target: T1, human S1PR3 (Homo sapiens, UniProt Q99500); assay: Intracellular Ca2+ release (FLIPR) agonist potency, S1P3
T1 construct: host or cells: CHO-K1
Experimental: Agonistic activity was measured using the method described below.
Intracellular Ca^2+ Release
Agonist potency and intrinsic activity was assessed by measurement of intracellular Ca^2+ release. Recombinant CHO-K1 cells (Euroscreen, Brussels, Belgium) expressing human S1PR5, S1PR1, S1PR3 or S1PR4 receptors, aequorin, and GTP binding protein Gq/i5 were cultured using a medium containing nutrient mixture F-12 Ham (Sigma-Aldrich) with 10% FBS, and 100 μg/mL gentamicin and equilibrated at 5% CO2.
Phospho-fingolimod was used as positive control. Antagonists were pre-incubated for 10 min with cells before addition of the agonist (phospho-fingolimod at EC80). Measurements were performed using a fluorometric imaging plate reader FLIPR®tetra (Molecular Devices). Agonist at the human S1P receptors were characterized by deducing EC50 (potency) values from a nonlinear fit to the measured fluorescence raw data after normalization to the reference agonist (phospho-fingolimod) curve.

human S1PR4 = target: T2, human S1PR4 (Homo sapiens, UniProt O95977); assay: Intracellular Ca2+ release (FLIPR) agonist potency, S1P4
T2 construct: host or cells: CHO-K1
T2 sequence (O95977 1-384): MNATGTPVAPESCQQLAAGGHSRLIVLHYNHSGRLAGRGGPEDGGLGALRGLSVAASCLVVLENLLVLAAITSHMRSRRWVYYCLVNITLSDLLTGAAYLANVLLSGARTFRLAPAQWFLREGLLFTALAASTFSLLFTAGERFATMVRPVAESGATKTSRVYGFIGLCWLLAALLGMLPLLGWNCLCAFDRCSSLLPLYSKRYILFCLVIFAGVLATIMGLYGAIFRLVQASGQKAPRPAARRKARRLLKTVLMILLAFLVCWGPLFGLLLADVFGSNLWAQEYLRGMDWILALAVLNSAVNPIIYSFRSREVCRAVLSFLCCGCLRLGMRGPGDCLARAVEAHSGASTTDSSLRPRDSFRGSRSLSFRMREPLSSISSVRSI
In short: (§1)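 CHO-K1 cells recombinantly expressing the human S1P receptor plus aequorin and Gq/i5 were grown in F-12 Ham with 10% FBS. Agonist-induced intracellular Ca2+ release was read on a FLIPR Tetra. EC50 came from nonlinear fits of raw fluorescence normalized to the phospho-fingolimod reference curve.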

human S1PR1 = target: T3, human S1PR1 (Homo sapiens, UniProt P21453); assay: Intracellular Ca2+ release (FLIPR) agonist potency, S1P1
T3 construct: host or cells: CHO-K1
In short: as §1

human S1PR5 = target: T4, human S1PR5 (Homo sapiens, UniProt Q9H228); assay: Intracellular Ca2+ release (FLIPR) agonist potency, S1P5
T4 construct: host or cells: CHO-K1
In short: as §1

[1] = recombinant CHO-K1 cells expressing human S1PR3, aequorin, Gq/i5, Calcium 5 FLIPR, read-out: S1P3 EC50
[2] = recombinant CHO-K1 cells expressing human S1PR4, aequorin, Gq/i5, Calcium 5 FLIPR, read-out: S1P4 EC50
[3] = recombinant CHO-K1 cells expressing human S1PR1, aequorin, Gq/i5, Calcium 5 FLIPR, read-out: S1P1 EC50
[4] = recombinant CHO-K1 cells expressing human S1PR5, aequorin, Gq/i5, Calcium 5 FLIPR, read-out: S1P5 EC50 range

T4 sequence (Q9H228 whole entry): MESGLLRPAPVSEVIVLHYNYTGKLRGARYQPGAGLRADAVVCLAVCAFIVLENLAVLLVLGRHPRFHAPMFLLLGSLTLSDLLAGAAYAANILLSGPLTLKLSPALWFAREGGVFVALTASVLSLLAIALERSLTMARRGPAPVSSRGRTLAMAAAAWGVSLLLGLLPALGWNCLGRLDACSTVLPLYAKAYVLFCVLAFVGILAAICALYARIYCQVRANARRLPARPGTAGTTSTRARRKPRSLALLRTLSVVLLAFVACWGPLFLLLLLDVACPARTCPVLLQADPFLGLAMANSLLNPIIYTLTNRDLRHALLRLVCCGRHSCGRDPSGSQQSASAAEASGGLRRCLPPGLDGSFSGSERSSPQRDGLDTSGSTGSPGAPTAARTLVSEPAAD
T1 sequence (Q99500 whole entry): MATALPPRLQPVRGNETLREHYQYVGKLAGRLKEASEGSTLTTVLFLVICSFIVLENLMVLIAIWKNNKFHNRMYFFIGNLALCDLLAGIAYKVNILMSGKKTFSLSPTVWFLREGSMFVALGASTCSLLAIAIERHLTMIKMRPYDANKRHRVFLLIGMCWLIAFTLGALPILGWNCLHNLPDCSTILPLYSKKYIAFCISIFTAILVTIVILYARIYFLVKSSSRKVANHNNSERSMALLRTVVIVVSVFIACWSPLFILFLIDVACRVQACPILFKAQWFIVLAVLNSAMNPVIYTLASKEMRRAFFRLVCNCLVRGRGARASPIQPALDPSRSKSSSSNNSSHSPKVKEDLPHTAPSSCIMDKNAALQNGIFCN
T3 sequence (P21453 whole entry): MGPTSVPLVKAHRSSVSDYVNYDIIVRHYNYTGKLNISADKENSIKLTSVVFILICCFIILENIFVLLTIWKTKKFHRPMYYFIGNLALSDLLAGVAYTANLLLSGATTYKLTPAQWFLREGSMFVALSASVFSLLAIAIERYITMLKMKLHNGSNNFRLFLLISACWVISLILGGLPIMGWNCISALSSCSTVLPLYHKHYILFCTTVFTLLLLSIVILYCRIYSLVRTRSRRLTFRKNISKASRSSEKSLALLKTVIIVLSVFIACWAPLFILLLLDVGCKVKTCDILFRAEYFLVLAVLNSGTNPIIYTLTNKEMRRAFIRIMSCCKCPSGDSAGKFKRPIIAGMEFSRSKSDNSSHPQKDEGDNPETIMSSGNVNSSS

Row | Compound | EC50 (human S1PR3; [1]) | EC50 (human S1PR4; [2]) | EC50 (human S1PR1; [3]) | EC50 (human S1PR5; [4]) | EC50 (human S1PR3) | EC50 (human S1PR4) | EC50 (human S1PR1) | EC50 (human S1PR5; S1P5 EC50 range)
1 | O=C(O)C1CCN(CC2OCCc3cc(OCc4c(Cl)cccc4Cl)ccc32)CC1 (centres unmarked) [Compound 70, 1-((6-((2,6-dichlorobenzyl)oxy)isochroman-1-yl)methyl)piperidine-4-carboxylic acid] | > 1000 nM | < 1000 nM | > 1000 nM | 10 to 100 nM | – | – | – | –
2 | O=C(O)C1CCN(C2CCc3cc(OCc4c(Cl)cccc4Cl)ccc3C2)C1 (centres unmarked) [Compound 74, 1-(6-((2,6-dichlorobenzyl)oxy)-1,2,3,4-tetrahydronaphthalen-2-yl)pyrrolidine-3-carboxylic acid] | > 1000 nM | < 1000 nM | > 1000 nM | < 10 nM | – | – | – | –
3 | O=C(O)[C@H]1C[C@@H](NC2CCc3cc(OCc4c(Cl)cccc4Cl)ccc3C2)C1 (some centres unmarked) [Compound 77, (1 s,3s)-3-((6-((2,6-dichlorobenzyl)oxy)-1,2,3,4-tetrahydronaphthalen-2-yl)amino)cyclobutanecarboxylic acid] | > 1000 nM | < 1000 nM | < 1000 nM | < 10 nM | – | – | – | –
4 | O=C(O)CC1CN(C2CCc3cc(OCc4c(Cl)cccc4Cl)ccc3C2)C1 (centres unmarked) [Compound 78, 2-(1-(6-((2,6-dichlorobenzyl)oxy)-1,2,3,4-tetrahydronaphthalen-2-yl)azetidin-3-yl)acetic acid] | > 1000 nM | < 1000 nM | > 1000 nM | < 10 nM | – | – | – | –
5 | O=C(O)[C@H]1C[C@H](NC2CCc3cc(OCc4c(Cl)cccc4Cl)ccc3C2)C1 (some centres unmarked) [Compound 79, (1r,3r)-3-((6-((2,6-dichlorobenzyl)oxy)-1,2,3,4-tetrahydronaphthalen-2-yl)amino)cyclobutanecarboxylic acid] | > 1000 nM | < 1000 nM | < 1000 nM | < 10 nM | – | – | – | –
6 | O=C(O)CC1CCN(C2CCc3cc(OCc4c(Cl)cccc4Cl)ccc3C2)C1 (centres unmarked) [Compound 80, 2-(1-(6-((2,6-dichlorobenzyl)oxy)-1,2,3,4-tetrahydronaphthalen-2-yl)pyrrolidin-3-yl)acetic acid] | > 1000 nM | < 1000 nM | > 1000 nM | 10 to 100 nM | – | – | – | –
7 | O=C(O)C1CN(C2COc3cc(CCc4cc(F)cc(F)c4)ccc3C2)C1 (centres unmarked) [Compound 81, 1-(7-(3,5-difluorophenethyl)chroman-3-yl)azetidine-3-carboxylic acid] | > 1000 nM | > 1000 nM | > 1000 nM | 1000 to 10000 nM | – | – | – | –
8 | CCc1cccc(Cl)c1COc1ccc2c(c1)CCC1C2OCCN1CCC(=O)O (centres unmarked) [Compound 82, 3-(8-((2-chloro-6-ethylbenzyl)oxy)-5,6-dihydro-2H-naphtho[1,2-b][1,4]oxazin-4(3H,4aH,10bH)-yl)propanoic acid hydrochloride] | > 1000 nM | < 1000 nM | < 1000 nM | < 10 nM | – | – | – | –
9 | CCc1cccc(Cl)c1COc1ccc2c(c1)CCC(NCC(=O)N(C)OC)C2 (centres unmarked) [Compound 216, 2-[[6-[(2-chloro-6-ethyl-phenyl)methoxy]tetralin-2-yl]amino]-N-methoxy-N-methyl-acetamide] | > 1000 nM | > 1000 nM | > 1000 nM | < 10 nM | – | – | – | –
10 | CCc1cccc(Cl)c1COc1ccc2c(c1)CCC(NCC(=O)NOC)C2 (centres unmarked) [Compound 218, 2-[[6-[(2-chloro-6-ethyl-phenyl)methoxy]tetralin-2-yl]amino]-N-methoxy-acetamide] | > 1000 nM | > 1000 nM | > 1000 nM | 100 to 1000 nM | – | – | – | –
11 | CCc1cccc(Cl)c1COc1ccc2c(c1)CCC(NCc1cc(=O)[nH]o1)C2 (centres unmarked) [Compound 220, 5-[[[6-[(2-chloro-6-ethyl-phenyl)methoxy]tetralin-2-yl]amino]methyl]isoxazol-3-one] | – | – | – | – | > 1000 nM | < 1000 nM | < 1000 nM | < 10 nM
12 | CCc1cccc(Cl)c1COc1ccc2c(c1)CCC(NCC(=O)NO)C2 (centres unmarked) [Compound 236, 2-((6-((2-chloro-6-ethylbenzyl)oxy)-1,2,3,4-tetrahydronaphthalen-2-yl)amino)acetohydroxamic acid] | > 1000 nM | < 1000 nM | > 1000 nM | < 10 nM | – | – | – | –
13 | CN(CC(=O)O)C1COc2cc(-c3ccc(OCc4ccccc4)cc3)ccc2C1 (centres unmarked) [Compound 238, 2-((7-(4-(benzyloxy)phenyl)chroman-3-yl)(methyl)amino)acetic acid] | > 1000 nM | > 1000 nM | < 1000 nM | 10 to 100 nM | – | – | – | –

Now from value to compound, other results behind:

Row | EC50 (human S1PR3; [1]) | EC50 (human S1PR4; [2]) | EC50 (human S1PR1; [3]) | EC50 (human S1PR5; [4]) | Compound | EC50 (human S1PR3) | EC50 (human S1PR4) | EC50 (human S1PR1) | EC50 (human S1PR5; S1P5 EC50 range)
14 | > 1000 nM | < 1000 nM | < 1000 nM | < 10 nM | CCc1cccc(Cl)c1COc1ccc2c(c1)CCC(NCC(=O)O)C2 (centres unmarked) [Compound 73, 2-((6-((2-chloro-6-ethylbenzyl)oxy)-1,2,3,4-tetrahydronaphthalen-2-yl)amino)acetic acid] | – | – | – | –
15 | > 1000 nM | < 1000 nM | > 1000 nM | < 10 nM | O=C(O)CNC1CCc2cc(OCc3c(Cl)cccc3Cl)ccc2C1 (centres unmarked) [Compound 75, 2-((6-((2,6-dichlorobenzyl)oxy)-1,2,3,4-tetrahydronaphthalen-2-yl)amino)acetic acid] | – | – | – | –
16 | > 1000 nM | > 1000 nM | > 1000 nM | < 10 nM | O=C(O)COC1CCc2cc(OCc3c(F)ccc(Cl)c3F)ccc2C1 (centres unmarked) [Compound 152, 2-[6-[(3-chloro-2,6-difluoro-phenyl)methoxy]tetralin-2-yl]oxyacetic acid] | – | – | – | –
17 | > 1000 nM | > 1000 nM | > 1000 nM | 10 to 100 nM | O=C(O)COC1CCc2cc(OCc3cc(OC(F)(F)F)ccc3F)ccc2C1 (centres unmarked) [Compound 161, 2-[6-[[2-fluoro-5-(trifluoromethoxy)phenyl]methoxy]tetralin-2-yl]oxyacetic acid] | – | – | – | –
18 | > 1000 nM | > 1000 nM | > 1000 nM | < 10 nM | O=C(O)COC1CCc2cc(OCc3c(Cl)cccc3C(F)(F)F)ccc2C1 (centres unmarked) [Compound 167, 2-[6-[[2-chloro-6-(trifluoromethyl)phenyl]methoxy]tetralin-2-yl]oxyacetic acid] | – | – | – | –
19 | > 1000 nM | < 1000 nM | > 1000 nM | < 10 nM | O=C(O)COC1CCc2cc(OCc3cc(F)ccc3C(F)(F)F)ccc2C1 (centres unmarked) [Compound 168, 2-[6-[[5-fluoro-2-(trifluoromethyl)phenyl]methoxy]tetralin-2-yl]oxyacetic acid] | – | – | – | –
20 | > 1000 nM | > 1000 nM | > 1000 nM | 10 to 100 nM | Cc1cccc(C)c1COc1ccc2c(c1)CCC(OCC(=O)O)C2 (centres unmarked) [Compound 175, 2-[6-[(2,6-dimethylphenyl)methoxy]tetralin-2-yl]oxyacetic acid] | – | – | – | –
21 | > 1000 nM | > 1000 nM | > 1000 nM | 100 to 1000 nM | O=C(O)COC1CCc2cc(OCc3c(Cl)cccc3Cl)ccc2C1 (centres unmarked) [Compound 210, 2-[6-[(2,6-dichlorophenyl)methoxy]tetralin-2-yl]oxyacetic acid] | – | – | – | –
22 | > 1000 nM | > 1000 nM | > 1000 nM | 10 to 100 nM | CC(C)(C)c1ccc(COc2ccc3c(c2)CCC(OCC(=O)O)C3)cc1 (centres unmarked) [Compound 211, 2-[6-[(4-tert-butylphenyl)methoxy]tetralin-2-yl]oxyacetic acid] | – | – | – | –
23 | > 1000 nM | < 1000 nM | > 1000 nM | 10 to 100 nM | O=C(O)COC1CCc2cc(OCc3cccc(C(F)(F)F)c3)ccc2C1 (centres unmarked) [Compound 213, 2-[6-[[3-(trifluoromethyl)phenyl]methoxy]tetralin-2-yl]oxyacetic acid] | – | – | – | –
